The target of assay [1] is T1, SARS-CoV-2 PLpro (nsp3 1564–1878) (Severe acute respiratory syndrome coronavirus 2, UniProt P0DTD1). Nature of the assay: biochemical. Details: FRET-quenched peptide (Pro3) cleavage by PLpro, 10 min pre-incubation, slope over 20 min, normalised to no-compound control. The note with it: high concentration screen, read-out: % of control remaining.
Assay [2] concerns the target T1, SARS-CoV-2 PLpro (nsp3 1564–1878). Nature of the assay: biochemical. Also on record: FRET-quenched peptide (Pro3) cleavage by PLpro, 10 min pre-incubation, slope over 20 min, normalised to no-compound control. The note with it: low concentration screen, read-out: % of control remaining.

Where a name gives a salt, the structure may show the parent alone. Read-outs that look alike come from different tables or passages of the source.

On to `NC(=O)c1ccc(-c2nc(-c3ccc4c(c3)OCCO4)c(-c3ccccn3)[nH]2)cc1` [Casein Kinase I Inhibitor, D4476], for which, in assay [1] (Well no.=2372), the remaining activity at 3.75 µM worked out at 99.2%. Further, in assay [2] (Well no.=2372), the remaining activity at 1.25 µM worked out at 102%.
For `CCN(CC)CCOC(=O)c1ccc(N)cc1` [Procaine hydrochloride], the remaining activity at 3.75 µM in assay [1] (Well no.=1165) is 105%. Further, the remaining activity at 1.25 µM in assay [2] (Well no.=1165) turned out to be 103%.
In the case of `C[N+](C)(C)CC#CCOC(=O)Nc1cccc(Cl)c1` [McN-A-343], the remaining activity at 3.75 µM in assay [1] (Well no.=184) came to 96.2%. In addition, in assay [2] (Well no.=184), the remaining activity at 1.25 µM worked out at 102%.
Regarding `CCCCCC(=O)/C=C/[C@@H]1[C@@H](C/C=C\CCCC(=O)O)[C@@H](O)C[C@H]1O` [15-keto-prostaglandin F2a], the remaining activity at 3.75 µM in assay [1] (Well no.=4571) stood at 88.5%. Also, in assay [2] (Well no.=4571), the remaining activity at 1.25 µM came out at 90.1%.
For the compound `COc1cc(CC(=O)O)ccc1O` [4-Hydroxy-3-methoxyphenylacetic acid], the remaining activity at 3.75 µM in assay [1] (Well no.=750) amounted to 97.2%. Besides, the remaining activity at 1.25 µM in assay [2] (Well no.=750) came out at 99.7%.
Regarding `CNc1ccc2oc(C[C@H]3O[C@@]4(CC[C@H]3C)O[C@H]([C@H](C)C(=O)c3ccc[nH]3)[C@H](C)C[C@H]4C)nc2c1C(=O)O` [Antibiotic A-23187], in assay [1] (Well no.=3079), the remaining activity at 3.75 µM was determined as 104%. Further, the remaining activity at 1.25 µM in assay [2] (Well no.=3079) was found to be 103%.
`CCCN(CCC)[C@@H]1CCc2c(F)ccc(O)c2C1` [R(+)-UH-301 hydrochloride]: the remaining activity at 3.75 µM in assay [1] (Well no.=1382) is 98.5%. Also, the remaining activity at 1.25 µM in assay [2] (Well no.=1382) came to 98.7%.
Consider `O=C(O)C(O)c1cccc(O)c1` (stereo not shown) [3-Hydroxymandelic Acid], for which, in assay [1] (Well no.=6879), the remaining activity at 3.75 µM was determined as 98.2%. Also, in assay [2] (Well no.=6879), the remaining activity at 1.25 µM turned out to be 100%.
For the compound `S=C(NC1CCCCC1)N1CCC(c2cnc[nH]2)CC1` [Thioperamide maleate], in assay [1] (Well no.=1234), the remaining activity at 3.75 µM was 104%. Besides, the remaining activity at 1.25 µM in assay [2] (Well no.=1234) turned out to be 102%.
As to `O=C1OC(/C=C/c2ccccc2)=NC/1=C/c1cccnc1` [TC-DAPK 6], in assay [1] (Well no.=6734), the remaining activity at 3.75 µM was determined as 90.3%. The remaining activity at 1.25 µM in assay [2] (Well no.=6734) was 96.1%.
Turning to `CC(C)(C)c1ccc(C(O)CCCN2CCC(C(O)(c3ccccc3)c3ccccc3)CC2)cc1` (stereo not shown) [Terfenadine], the remaining activity at 3.75 µM in assay [1] (Well no.=1232) amounted to 102%; in assay [1] (Well no.=1742) it was 98.6%; in assay [1] (Well no.=6598) it was 104%. The remaining activity at 1.25 µM in assay [2] (Well no.=1232) amounted to 100%; in assay [2] (Well no.=1742), 97.7%; in assay [2] (Well no.=6598) it was 103%.
For `CCOc1cc([C@@H](CS(C)(=O)=O)N2C(=O)c3cccc(NC(C)=O)c3C2=O)ccc1OC` [Apremilast (CC-10004)], the remaining activity at 3.75 µM in assay [1] (Well no.=5218) was 99.8%. For the same compound, in assay [2] (Well no.=5218), the remaining activity at 1.25 µM was found to be 97.8%.
For the compound `O=c1n(CCCN2CCN(c3cccc(Cl)c3)CC2)nc2ccccn12` [Trazodone (hydrochloride)], the remaining activity at 3.75 µM in assay [1] (Well no.=7432) turned out to be 111%. Moreover, the remaining activity at 1.25 µM in assay [2] (Well no.=7432) was 109%.
Consider `CC(=O)N[C@@H](Cc1ccccc1)C(=O)O` [NSC 45699], for which the remaining activity at 3.75 µM in assay [1] (Well no.=8710) was 106%. For the same compound, in assay [2] (Well no.=8710), the remaining activity at 1.25 µM was 107%.
Regarding `O=c1[nH]oc2c1CCNC2` [THIP hydrochloride], the remaining activity at 3.75 µM in assay [1] (Well no.=1328) amounted to 97.2%. In assay [2] (Well no.=1328), the remaining activity at 1.25 µM is 96.3%.
As to `Cc1[nH]c(/C=C2\C(=O)Nc3ccc(S(=O)(=O)Cc4c(Cl)cccc4Cl)cc32)c(C)c1C(=O)N1CCC[C@@H]1CN1CCCC1` [PHA 665752 - (2R)-1-[[5-[(Z)-[5-[[(2,6-Dichlorophenyl)methyl]sulfonyl]-1,2-dihydro-2-oxo-3H-indol-3-ylidene]methyl]-2,4-dimethyl-1H-pyrrol-3-yl]carbonyl]-2-(1-pyrrolidinylmethyl)pyrrolidine], in assay [1] (Well no.=2590), the remaining activity at 3.75 µM was found to be 98.3%. For the same compound, in assay [2] (Well no.=2590), the remaining activity at 1.25 µM amounted to 96.2%.
In the case of `CN1Cc2sccc2C(c2ccc(O)c(O)c2)C1` (stereo not shown) [SKF 89145 hydrobromide], the remaining activity at 3.75 µM in assay [1] (Well no.=1218) was found to be 98.3%. Besides, the remaining activity at 1.25 µM in assay [2] (Well no.=1218) was found to be 92.6%.
`CC[C@@H]1/C=C(\C)C[C@H](C)C[C@H](OC)[C@H]2O[C@@](O)(C(=O)C(=O)N3CCCC[C@H]3C(=O)O[C@H](/C(C)=C/[C@@H]3CC[C@H](Cl)[C@H](OC)C3)[C@H](C)[C@@H](O)CC1=O)[C@H](C)C[C@@H]2OC` [Pimecrolimus]: the remaining activity at 3.75 µM in assay [1] (Well no.=8178) was 91.3%. In addition, in assay [2] (Well no.=8178), the remaining activity at 1.25 µM stood at 93.5%.
For `N#Cc1ccc2[nH]cc(CCCCN3CCN(c4ccc5oc(C(N)=O)cc5c4)CC3)c2c1` [Vilazodone], in assay [1] (Well no.=6477), the remaining activity at 3.75 µM came to 89.2%. For the same compound, the remaining activity at 1.25 µM in assay [2] (Well no.=6477) came to 90.6%.
With `O=c1cc(O)cc(/C=C/c2ccc(O)c(O)c2)o1` [Hispidin], in assay [1] (Well no.=754), the remaining activity at 3.75 µM stood at 96.8%. Besides, in assay [2] (Well no.=754), the remaining activity at 1.25 µM amounted to 98.7%.
Consider `O=C(O)CCCN1CCC(O[C@@H](c2ccc(Cl)cc2)c2ccccn2)CC1` [Bepotastine (Beslilate)], for which, in assay [1] (Well no.=6333), the remaining activity at 3.75 µM is 93.3%. Moreover, the remaining activity at 1.25 µM in assay [2] (Well no.=6333) turned out to be 97.3%.
For the compound `Cc1ccc(NC(=O)c2ccc(CN3CCN(C)CC3)cc2)cc1Nc1nccc(-c2cccnc2)n1` [Imatinib], the remaining activity at 3.75 µM in assay [1] (Well no.=2839) turned out to be 102%. Besides, the remaining activity at 1.25 µM in assay [2] (Well no.=1611) was 102%; in assay [2] (Well no.=2839) it was 99.7%.
Consider `Oc1ccc(O)cc1` [Hydroquinone], for which the remaining activity at 3.75 µM in assay [1] (Well no.=472) turned out to be 99.1%; in assay [1] (Well no.=3849) it was 106%. Moreover, the remaining activity at 1.25 µM turned out to be 102% in assay [2] (Well no.=472) and 105% in assay [2] (Well no.=3849).
As to `CN(N=O)c1cc(O)ccc1O` [Dephostatin], the remaining activity at 3.75 µM in assay [1] (Well no.=392) was 97.3%. For the same compound, the remaining activity at 1.25 µM in assay [2] (Well no.=392) amounted to 97.4%.
On to `COc1ccc(-c2ccc3ncc4c(c3c2)n(-c2ccc(N3CCNCC3)c(C(F)(F)F)c2)c(=O)n4C)cn1` [NVP-BGT226], for which, in assay [1] (Well no.=4701), the remaining activity at 3.75 µM was determined as 97.1%. The remaining activity at 1.25 µM in assay [2] (Well no.=4701) worked out at 99%.
On to `OC[C@H]1O[C@@H](c2ccc(Cl)c(Cc3ccc(O[C@H]4CCOC4)cc3)c2)[C@H](O)[C@@H](O)[C@@H]1O` [Empagliflozin (BI 10773)], for which the remaining activity at 3.75 µM in assay [1] (Well no.=8724) was determined as 91.3%. For the same compound, the remaining activity at 1.25 µM in assay [2] (Well no.=8724) came to 98.6%.
As to `Cc1c(C(=O)NN2CCCCC2)nn(-c2ccc(Cl)cc2Cl)c1-c1ccc(Cl)cc1` [Rimonabant], the remaining activity at 3.75 µM in assay [1] (Well no.=8438) came to 97%. For the same compound, the remaining activity at 1.25 µM in assay [2] (Well no.=8438) turned out to be 92.2%.
Consider `COc1ccc(CNC(=O)c2sc3nc(C)cc(C)c3c2N)cc1` [VU0152100], for which the remaining activity at 3.75 µM in assay [1] (Well no.=5931) was determined as 98.2%; in assay [1] (Well no.=7293), 88.9%. In addition, the remaining activity at 1.25 µM in assay [2] (Well no.=5931) worked out at 95.9%; in assay [2] (Well no.=7293), 91.9%.
Turning to `O=C(CCCN1CCC(O)(c2cccc(C(F)(F)F)c2)CC1)c1ccc(F)cc1` [Trifluperidol], the remaining activity at 3.75 µM in assay [1] (Well no.=2296) was determined as 96.6%. For the same compound, the remaining activity at 1.25 µM in assay [2] (Well no.=2296) was determined as 95.3%.

The values are drawn from PMC8286840, “Identifying SARS-CoV-2 antiviral compounds by screening for small molecule inhibitors of Nsp3 papain-like protease” (Biochemical Journal, 2021).
